# Laboratory results as given in patent US20230220313A1, “COMPOSITION AND METHOD FOR INACTIVATING A VIRUS” (RNASSIST LIMITED, priority 2020, published 2023).
# Counter-ions that a name gives are not always drawn.
# Test system: SARS-CoV-2
# Test: not given
# Conditions: Welch et al (2020) J. Clin. Microbiology; cited from earlier work
row,Compound,inactivation of SARS-CoV-2
1,N#CS.N=C(N)N [Guanidine thiocyanate],not completely inactivated
2,CCCCCCCCCCCCOS(=O)(=O)[O-].[Na+] [SDS],not completely inactivated
3,Triton X-100,not completely inactivated
4,N=C(N)N [Guanidine HCl],not completely inactivated

# Test system: not listed separately
# Test: Viscosity by falling ball method
# Type: physicochemical
# Conditions: falling ball method at 20° C.
row,Compound,viscosity [cP]
1,COCCOCCOCCOCCOC [Tetraethylene glycol dimethyl ether],3.3
2,COCCOCCOCCOCCO [Tetraethylene glycol monomethyl ether],12
